Results from US12263248B2, “Compounds and compositions for intracellular delivery of therapeutic agents” (ModernaTX, Inc., priority 2018, dated 2025).

Legend:
[1] = Apparent (surface) pKa of the LNP formulation (TNS assay); type: physicochemical; conditions: Table 1A
In short: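 LNP (0.04 mg/mL mRNA) mixed with TNS reagent in 21 buffers spanning about pH 3-12, in triplicate; fluorescence plotted against pH as sigmoidal curve. Apparent pKa taken as […] curve inflection point; validated in 1× PBS and 20 mM Tris w/8% sucrose.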

IL-6, IP-10 = assay: Cytokine induction in mice upon intravenous administration; type: in vivo; design: Cytokine induction IL-6 / Cytokine induction IP-10: unit not given here; conditions: 0.5 mpk, 6 hours
Text: The introduction of foreign material into a mammalian body induces an innate immune response that promotes cytokine production. Such immune responses to, for example, nanoparticle compositions including therapeutic and/or prophylactics, are undesirable. The induction of certain cytokines is thus measured to evaluate the […] of nanoparticle compositions. The concentrations of various cytokines in mice upon intravenous administration of nanoparticle compositions presented in Table 1A at a dosage of 0.5 mpk was measured at 6 hours. The standard MC3 formulation and a PBS control were also tested. As is evident in Table 7, IL-6 induction was highest for compositions including Compounds 1, 3, 9, 19, and 26, while IP-10 induction was highest for compositions including Compounds 3, 4, 7, 20, and 26. IL-6 induction was lowest for compositions including Compounds 4, 11, 12, and 28. IP-10 induction was lowest for compositions including Compounds 10, 11, 12, 13, 15, 17, and 18.

luciferase (Luc) mRNA [2] = assay: Luc expression, whole body bioluminescence after intravenous administration to mice; type: in vivo; conditions: for Fold increase in total body Luc Flux relative to MC3 at 6 h: Table 3A, i.v. administration; for Total Flux 3 hours / Total Flux 6 hours / Total Flux 24 hours / total flux at 3 hours: mice, i.v., 0.5 mg/kg; for Total Flux 3 hours / Total Flux 6 hours / Total Flux 24 hours: Luc mRNA; for total flux at 3 hours: comparison in words
In short: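 Luc mRNA nanoparticle formulations given intravenously to mice (n=6) at 0.5 mg/kg; whole-body bioluminescence imaged at 3, 6 and 24 h. CD-1 mice received IP D-luciferin (200 μL of 15 mg/mL) 15 min before imaging; total flux quantified by region of interest.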

luciferase (Luc) mRNA [3] = assay: Luc expression in liver, lung, spleen and femur 6 hours after intravenous administration; type: in vivo; conditions: mice, 0.5 mpk; for Total Flux Liver / Total Flux Lung / Total Flux Spleen: intravenous
In short: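 LNP-formulated mRNA given IV to mice (n=3) at 0.5 mpk; at 6 h, bioluminescence imaged ex vivo 15 min after IP D-luciferin (15 mg/mL, 200 μL), organs imaged within 25 min. Values are total flux by region of interest.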

[4] = Encapsulation efficiency of RNA (QUANT-IT RIBOGREEN RNA assay); type: physicochemical; conditions: Table 1A
In short: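 RiboGreen fluorescence (ex ~480, em ~520 nm) compared between intact samples and Triton X-100-lysed samples after 15 min at 37 °C in TE buffer, pH 7.5. Percent free RNA is the blank-corrected intact/disrupted ratio.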

[5] = Particle size and polydispersity index of nanoparticle compositions (Zetasizer Nano ZS); type: physicochemical; conditions: Table 1A; for Size (nm): lipid:DSPC:cholesterol:PEG-DMG 50:10:38.5:1.5 mol %
In short: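 In 1×PBS, the compositions were sized on a Zetasizer Nano ZS, which also reported their polydispersity index.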

luciferase (Luc) mRNA [6] = assay: Luc expression (total flux) after intramuscular administration; type: in vivo, mice; conditions: for Total flux, 0.001 mpk Dose / Total flux, 0.01 mpk Dose: 6 hours after intramuscular administration, Luc mRNA and H10 mRNA
Method: In order to monitor how effectively various nanoparticle compositions deliver therapeutic and/or prophylactics to targeted cells, different nanoparticle compositions including a particular therapeutic and/or prophylactic (for example, a modified or naturally occurring RNA such as an mRNA) are prepared and administered to rodent populations. Mice are intravenously, intramuscularly, intraarterially, or intratumorally administered a single dose including a nanoparticle composition with a formulation such as those provided in Example 3. In some instances, mice may be made to inhale doses. Dose sizes may range from 0.001 mg/kg to 10 mg/kg, where 10 mg/kg describes a dose including 10 mg of a therapeutic and/or prophylactic in a nanoparticle composition for each 1 kg of body mass of the mouse. A control composition including PBS may also be employed.
Sample formulations including both modified luciferase (Luc) mRNA and H10 mRNA were prepared and administered intramuscularly and the resulting expression and immunogenicity were evaluated simultaneously. Formulations including compounds according to Formula (I), (IA), (IB), (II), (IIa), (IIb), (IIc), (IId), (IIe), (IIf), (IIg), (III), (VI), (VI-a), (VII), (VIII), (VIIa), (VIIIa), (VIIIb), (VIIb-1), (VIIb-2), (VIIb-3), (VIIc), (VIId), (VIIIc), or (VIIId) were prepared and administered at doses of 0.001 and 0.01 mpk (e.g., doses of 0.0005 mpk of a formulation including Luc mRNA and a formulation including H10 mRNA or doses of 0.005 mpk of a formulation including Luc mRNA and a formulation including H10 mRNA).
Sample formulations including modified luciferase (Luc) mRNA prepared and administered intramuscularly and the resulting expression and immunogenicity were evaluated simultaneously. Formulations including compounds according to Formula (I), (IA), (IB), (II), (IIa), (IIb), (IIc), (IId), (IIe), (IIf), (IIg), (III), (VI), (VI-a), (VII), (VIII), (VIIa), (VIIIa), (VIIIb), (VIIb-1), (VIIb-2), (VIIb-3), (VIIc), (VIId), (VIIIc), or (VIIId) were prepared and administered at dose of and 0.01 mpk.

Row | Compound | pKa [1] | Fold increase in total body Luc Flux relative to MC3 at 6 h (luciferase (Luc) mRNA [2]) | Total Flux 3 hours (luciferase (Luc) mRNA [2]) | Total Flux 6 hours (luciferase (Luc) mRNA [2]) | Total Flux 24 hours (luciferase (Luc) mRNA [2]) | total flux at 3 hours (luciferase (Luc) mRNA [2]) | Total Flux Liver (luciferase (Luc) mRNA [3]) | Total Flux Lung (luciferase (Luc) mRNA [3]) | Total Flux Spleen (luciferase (Luc) mRNA [3]) | EE (%) [4] [%] | PDI [5] | Size (nm) [5] [nm] | Total flux, 0.001 mpk Dose (luciferase (Luc) mRNA [6]) [p/s] | Total flux, 0.01 mpk Dose (luciferase (Luc) mRNA [6]) [p/s] | also measured
1 | CCCCCCCCC(CCCCCCCC)OC(=O)CCCCCCCN(CCO)CCCCCCCC [Compound 4, Heptadecan-9-yl 8-((2-hydroxyethyl)(octyl)amino)octanoate] | 6.33 | 1.31 | 1.37E+11 | 6.01E+10 | 1.13E+09 | highest | 5.26E+09 | 6.22E+07 | 4.09E+08 | 95.10 | 0.21 | 120.5 |  |  | IL-6 induction (IL-6, IP-10; i.v., in words): lowest; IP-10 induction (IL-6, IP-10; i.v., in words): highest; Cytokine induction IL-6 (IL-6, IP-10; intravenous): 13.1375; Cytokine induction IP-10 (IL-6, IP-10; intravenous): 2253.09; Flux in the spleen (luciferase (Luc) mRNA [3]; i.v., in words): highest
2 | CCCCCCCCC(CCCCCCCC)OC(=O)CCCCCCCN(CCO)CCCC(=O)OC(CCCCC)CCCCCCCC (centres unmarked) [Compound 71, Heptadecan-9-yl 8-((2-hydroxyethyl)(4-oxo-4-(tetradecan-6-yloxy)butyl)amino)octanoate] | 5.88 | 0.418 | 4.09E+09 | 9.28E+09 | 6.51E+07 |  | 7.93E+08 | 4.86E+06 | 8.04E+06 | 97.54 | 0.24 | 71 |  |  | AUC (p/s * h) (luciferase (Luc) mRNA [6]; Table 3H, intramuscular, Luc): 6.61E+07 p/s * h; Lipid/MC3 AUC (luciferase (Luc) mRNA [6]; Table 3H, intramuscular, Luc): 0.11
3 | CCCCCCCCCOC(=O)CCCCCCCN(CCO)CCCCCCCC(=O)OC(CCCCCC)CCCCCCCC (centres unmarked) [Compound 32, nonyl 8-((2-hydroxyethyl)(8-oxo-8-(pentadecan-7-yloxy)octyl)amino) octanoate] | 6.75 | 1.39 | 8.65E+10 | 6.08E+10 | 1.92E+09 | highest | 8.52E+09 | 1.16E+07 | 1.70E+08 | 94.87 | 0.18 | 105.6 | 7.37E+05 | 1.03E+07 | 
4 | CCCCCCCCCN(CCCCCCCC(=O)OC(CCCCCCCC)CCCCCCCC)CCCn1ccnc1 [Compound 8, Heptadecan-9-yl 8-((3-(1H-imidazol-1-yl)propyl)(nonyl)amino)octanoate] | 6.64 |  | 7.43E+09 | 6.71E+09 | 7.84E+08 |  | 7.87E+08 | 4.06E+06 | 1.51E+08 | 95.8 | 0.15 | 121.0 | 7.81E+05 | 3.32E+06 | 
